From publication PMC7789826 (Journal of Molecular Structure, 2021) come the findings set out here.

The target in this experiment is voltage-gated potassium channel Kv1.3 (Homo sapiens, UniProt P22001). In words: whole-cell patch clamp, voltage ramp, endogenous Kv1.[…] current in Jurkat T cells. Type of experiment: cell-based. For orientation: Patch clamp records ionic current or voltage across a cell membrane.
Sequence of voltage-gated potassium channel Kv1.3 (P22001 whole entry): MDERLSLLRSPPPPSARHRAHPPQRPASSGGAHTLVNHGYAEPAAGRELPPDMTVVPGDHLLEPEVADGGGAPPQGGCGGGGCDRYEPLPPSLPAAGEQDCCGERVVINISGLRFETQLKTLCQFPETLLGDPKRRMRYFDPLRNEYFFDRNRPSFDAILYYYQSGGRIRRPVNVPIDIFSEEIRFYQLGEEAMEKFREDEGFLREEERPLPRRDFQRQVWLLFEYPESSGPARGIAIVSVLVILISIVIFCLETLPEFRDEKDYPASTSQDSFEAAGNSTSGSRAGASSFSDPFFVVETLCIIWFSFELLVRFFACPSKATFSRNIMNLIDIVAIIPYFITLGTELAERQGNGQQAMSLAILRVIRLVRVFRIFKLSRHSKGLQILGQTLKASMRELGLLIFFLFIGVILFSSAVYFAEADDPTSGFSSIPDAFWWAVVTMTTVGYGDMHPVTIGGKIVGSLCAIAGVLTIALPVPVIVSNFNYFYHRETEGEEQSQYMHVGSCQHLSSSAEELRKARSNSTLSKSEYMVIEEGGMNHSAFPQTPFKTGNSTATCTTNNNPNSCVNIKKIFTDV

For `CCC(C)(C)C(=O)O[C@H]1C[C@@H](C)C=C2C=C[C@H](C)[C@H](CC[C@@H]3C[C@@H](O)CC(=O)O3)[C@H]21` [simvastatin], the EC50 is 4.85 µM.
Then `CC[C@H](C)C(=O)O[C@H]1CCC=C2C=C[C@H](C)[C@H](CC[C@@H]3C[C@@H](O)CC(=O)O3)[C@H]21` [mevastatin], with 6.04 µM.

By EC50 is commonly meant the concentration at which the effect is half-maximal. Read a low EC50 as an effect from little substance.
